Source: ChEMBL document CHEMBL1201861, “Genomics of Drug Sensitity in Cancer screening data, Wellcome Trust Sanger Institute”

Columns and labels:
Assay in all cases: cells
Settings in all cases: Homo sapiens
A-431 = type: functional, cell-based;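 also: growth inhibition of A-431 cells, determined with a cell viability read-out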
Description: SANGER: Inhibition of human A431 cell growth in a cell viability assay.

BFTC-905 = type: functional, cell-based
Description: SANGER: Inhibition of human BFTC-905 cell growth in a cell viability assay.

NCI-H661 = type: functional, cell-based;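 also: cell viability assay read-out, IC50 being the concentration that inhibits growth of the cells by half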
Description: SANGER: Inhibition of human NCI-H661 cell growth in a cell viability assay.

SW1573 = type: functional, cell-based;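 also: growth inhibition of SW1573 cells, read out with a cell viability assay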
Description: SANGER: Inhibition of human SW1573 cell growth in a cell viability assay.

J82 = type: functional, cell-based;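 also: growth inhibition of J82 cells, read out with a cell viability assay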
Description: SANGER: Inhibition of human J82 cell growth in a cell viability assay.

MKN-45 = type: functional, cell-based;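 also: growth inhibition of human MKN-45 cells, measured with a cell viability assay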
Description: SANGER: Inhibition of human MKN45 cell growth in a cell viability assay.

A2780 = type: functional, cell-based;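 also: growth inhibition of A2780 cells, read out with a cell viability assay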
Description: SANGER: Inhibition of human A2780 cell growth in a cell viability assay.

JEG-3 = type: functional, cell-based;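 also: growth inhibition of human JEG-3 cells, read out with a cell viability assay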
Description: SANGER: Inhibition of human JEG-3 cell growth in a cell viability assay.

SNU-387 = type: functional, cell-based
Description: SANGER: Inhibition of human SNU-387 cell growth in a cell viability assay.

SiHa = type: functional, cell-based;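 also: Viability-based readout of growth inhibition in SiHa cells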
Description: SANGER: Inhibition of human SiHa cell growth in a cell viability assay.

HT1197 = type: functional, cell-based, HT-1197
Description: SANGER: Inhibition of human HT-1197 cell growth in a cell viability assay.

COLO-678 = type: functional, cell-based
Description: SANGER: Inhibition of human COLO-678 cell growth in a cell viability assay.

MEL-JUSO = type: functional, cell-based;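 also: growth inhibition of human MEL-JUSO cells, read out with a cell viability assay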
Description: SANGER: Inhibition of human MEL-JUSO cell growth in a cell viability assay.

MKN-1 = type: functional, cell-based;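 also: growth inhibition of human MKN1 cells, read out by a cell viability measurement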
Description: SANGER: Inhibition of human MKN1 cell growth in a cell viability assay.

GP5d = type: functional, cell-based;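 also: growth inhibition of human GP5d cells, read out with a cell viability assay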
Description: SANGER: Inhibition of human GP5d cell growth in a cell viability assay.

OVCAR-3 = type: functional, cell-based;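 also: growth inhibition of human OVCAR-3 cells, determined by a cell viability assay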
Description: SANGER: Inhibition of human OVCAR-3 cell growth in a cell viability assay.

BXPC-3 = type: functional, cell-based;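 also: growth inhibition of human BxPC-3 cells, read out by a cell viability assay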
Description: SANGER: Inhibition of human BxPC-3 cell growth in a cell viability assay.

NCI-N87 = type: functional, cell-based;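 also: growth inhibition of human NCI-N87 cells, read out with a cell viability assay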
Description: SANGER: Inhibition of human NCI-N87 cell growth in a cell viability assay.

SK-MES-1 = type: functional, cell-based;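 also: growth inhibition of human SK-MES-1 cells, read out with a cell viability assay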
Description: SANGER: Inhibition of human SK-MES-1 cell growth in a cell viability assay.

G-402 = type: functional, cell-based
Description: SANGER: Inhibition of human G-402 cell growth in a cell viability assay.

NCI-H1693 = type: functional, cell-based;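 also: growth inhibition of the human cell line, read out with a cell viability assay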
Description: SANGER: Inhibition of human NCI-H1693 cell growth in a cell viability assay.

DOK = type: functional, cell-based;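 also: cell viability assay read-out, values reflect inhibition of cell growth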
Description: SANGER: Inhibition of human DOK cell growth in a cell viability assay.

OAW-28 = type: functional, cell-based;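 also: growth inhibition of OAW-28 cells, read out with a cell viability assay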
Description: SANGER: Inhibition of human OAW-28 cell growth in a cell viability assay.

Capan-2 = type: functional, cell-based;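 also: Capan-2 cell growth inhibition, read out with a viability assay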
Description: SANGER: Inhibition of human Capan-2 cell growth in a cell viability assay.

EW-22 = type: functional, cell-based;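 also: growth inhibition of the EW-22 cell line, measured with a cell viability readout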
Description: SANGER: Inhibition of human EW-22 cell growth in a cell viability assay.

KYSE-410 = type: functional, cell-based;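 also: growth inhibition of KYSE-410 cells, measured through a cell viability readout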
Description: SANGER: Inhibition of human KYSE-410 cell growth in a cell viability assay.

MHH-ES-1 = type: functional, cell-based;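 also: cell growth inhibition measured by a cell viability assay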
Description: SANGER: Inhibition of human MHH-ES-1 cell growth in a cell viability assay.

PANC-08-13 = type: functional, cell-based;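 also: cell growth inhibition, measured with a cell viability assay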
Description: SANGER: Inhibition of human PANC-08-13 cell growth in a cell viability assay.

MDA-MB-231 = type: functional, cell-based
Description: SANGER: Inhibition of human MDA-MB-231 cell growth in a cell viability assay.

COLO-680N = type: functional, cell-based;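 also: cell viability assay used to measure inhibition of COLO-680N cell growth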
Description: SANGER: Inhibition of human COLO-680N cell growth in a cell viability assay.

GAMG = type: functional, cell-based;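 also: cell growth inhibition measured by a viability assay in the GAMG human cell line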
Description: SANGER: Inhibition of human GAMG cell growth in a cell viability assay.

DoTc2-4510 = type: functional, cell-based
NCI-H2052 = type: functional, cell-based;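 also: growth inhibition of NCI-H2052 cells, read out with a cell viability assay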
Description: SANGER: Inhibition of human NCI-H2052 cell growth in a cell viability assay.

M059J = type: functional, cell-based;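 also: growth inhibition of M059J cells, read out with a cell viability assay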
Description: SANGER: Inhibition of human M059J cell growth in a cell viability assay.

EGI-1 = type: functional, cell-based;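 also: cell viability readout used to gauge growth inhibition of EGI-1 cells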
Description: SANGER: Inhibition of human EGI-1 cell growth in a cell viability assay.

UACC-893 = type: functional, cell-based
Description: SANGER: Inhibition of human UACC-893 cell growth in a cell viability assay.

MeWo = type: functional, cell-based;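 also: growth inhibition of MeWo cells, determined by a cell viability readout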
Description: SANGER: Inhibition of human Mewo cell growth in a cell viability assay.

NCI-H1993 = type: functional, cell-based;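 also: growth inhibition of the cancer cell line, assessed with a cell viability assay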
Description: SANGER: Inhibition of human NCI-H1993 cell growth in a cell viability assay.

T98G = type: functional, cell-based;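 also: growth inhibition of T98G cells, read out by a cell viability assay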
Description: SANGER: Inhibition of human T98G cell growth in a cell viability assay.

SK-OV-3 = type: functional, cell-based;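 also: growth inhibition of SK-OV-3 human cells, read out with a cell viability assay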
Description: SANGER: Inhibition of human SK-OV-3 cell growth in a cell viability assay.

HT-1080 = type: functional, cell-based
Description: SANGER: Inhibition of human HT-1080 cell growth in a cell viability assay.

CAL-72 = type: functional, cell-based;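 also: cell viability assay measuring inhibition of proliferation in the CAL-72 cell line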
Description: SANGER: Inhibition of human CAL-72 cell growth in a cell viability assay.

RVH-421 = type: functional, cell-based
Description: SANGER: Inhibition of human RVH-421 cell growth in a cell viability assay.

SAS = type: functional, cell-based;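 also: growth inhibition of SAS cells, read out with a cell viability assay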
Description: SANGER: Inhibition of human SAS cell growth in a cell viability assay.

NCI-H1651 = type: functional, cell-based;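 also: Read-out is a cell viability assay, with IC50 expressing inhibition of NCI-H1651 cell growth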
Description: SANGER: Inhibition of human NCI-H1651 cell growth in a cell viability assay.

KYSE-510 = type: functional, cell-based;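 also: cell viability readout used to measure how strongly growth of the cell line is suppressed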
Description: SANGER: Inhibition of human KYSE-510 cell growth in a cell viability assay.

NCI-H2405 = type: functional, cell-based;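 also: growth inhibition of the human cell line, read out with a cell viability assay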
Description: SANGER: Inhibition of human NCI-H2405 cell growth in a cell viability assay.

Cn1cc(/C=C2\C(=O)Nc3cccnc32)c2ccccc21
IC50 (A-431): > 2 µM
IC50 (BFTC-905): > 2 µM
IC50 (NCI-H661): > 2 µM
IC50 (SW1573): > 2 µM
IC50 (J82): > 2 µM
IC50 (MKN-45): > 2 µM
IC50 (A2780): > 2 µM
IC50 (JEG-3): > 2 µM
IC50 (SNU-387): > 2 µM
IC50 (SiHa): > 2 µM
IC50 (HT1197): > 2 µM
IC50 (COLO-678): > 2 µM
IC50 (MEL-JUSO): > 2 µM
IC50 (MKN-1): > 2 µM
IC50 (GP5d): > 2 µM
IC50 (OVCAR-3): > 2 µM
IC50 (BXPC-3): > 2 µM
IC50 (NCI-N87): > 2 µM
IC50 (SK-MES-1): > 2 µM
IC50 (G-402): > 2 µM
IC50 (NCI-H1693): > 2 µM
IC50 (DOK): > 2 µM
IC50 (OAW-28): > 2 µM
IC50 (Capan-2): > 2 µM
IC50 (EW-22): > 2 µM
IC50 (KYSE-410): > 2 µM
IC50 (MHH-ES-1): > 2 µM
IC50 (PANC-08-13): > 2 µM
IC50 (MDA-MB-231): > 2 µM
IC50 (COLO-680N): > 2 µM
IC50 (GAMG): > 2 µM
IC50 (DoTc2-4510): > 2 µM
IC50 (NCI-H2052): > 2 µM
IC50 (M059J): > 2 µM
IC50 (EGI-1): > 2 µM
IC50 (UACC-893): > 2 µM
IC50 (MeWo): > 2 µM
IC50 (NCI-H1993): > 2 µM
IC50 (T98G): > 2 µM
IC50 (SK-OV-3): 0.397 µM
IC50 (HT-1080): > 2 µM
IC50 (CAL-72): > 2 µM
IC50 (RVH-421): > 2 µM
IC50 (SAS): > 2 µM
IC50 (NCI-H1651): > 2 µM
IC50 (KYSE-510): > 2 µM
IC50 (NCI-H2405): > 2 µM

NC(=O)c1ncn([C@@H]2O[C@H](COP(=O)(O)O)[C@@H](O)[C@H]2O)c1N
IC50 (A-431): > 2000 µM
IC50 (BFTC-905): > 2000 µM
IC50 (NCI-H661): > 2000 µM
IC50 (SW1573): > 2000 µM
IC50 (J82): > 2000 µM
IC50 (MKN-45): > 2000 µM
IC50 (A2780): 1860 µM
IC50 (JEG-3): 1440 µM
IC50 (SNU-387): > 2000 µM
IC50 (SiHa): > 2000 µM
IC50 (HT1197): > 2000 µM
IC50 (COLO-678): > 2000 µM
IC50 (MEL-JUSO): > 2000 µM
IC50 (MKN-1): > 2000 µM
IC50 (GP5d): 1770 µM
IC50 (OVCAR-3): > 2000 µM
IC50 (BXPC-3): 1350 µM
IC50 (NCI-N87): 1490 µM
IC50 (SK-MES-1): > 2000 µM
IC50 (G-402): 1320 µM
IC50 (NCI-H1693): > 2000 µM
IC50 (DOK): 657 µM
IC50 (Capan-2): > 2000 µM
IC50 (EW-22): > 2000 µM
IC50 (KYSE-410): > 2000 µM
IC50 (MHH-ES-1): 1510 µM
IC50 (PANC-08-13): 1300 µM
IC50 (MDA-MB-231): > 2000 µM
IC50 (COLO-680N): > 2000 µM
IC50 (GAMG): > 2000 µM
IC50 (DoTc2-4510): 1250 µM
IC50 (NCI-H2052): 1490 µM
IC50 (M059J): > 2000 µM
IC50 (EGI-1): > 2000 µM
IC50 (UACC-893): > 2000 µM
IC50 (MeWo): > 2000 µM
IC50 (T98G): > 2000 µM
IC50 (SK-OV-3): > 2000 µM
IC50 (HT-1080): > 2000 µM
IC50 (CAL-72): 321 µM
IC50 (RVH-421): > 2000 µM
IC50 (SAS): 746 µM
IC50 (NCI-H1651): > 2000 µM
IC50 (KYSE-510): 905 µM
IC50 (NCI-H2405): > 2000 µM

COc1cc(Nc2c(C#N)cnc3cc(OCCCN4CCN(C)CC4)c(OC)cc23)c(Cl)cc1Cl [BOSUTINIB]
IC50 (A-431): > 2 µM
IC50 (BFTC-905): > 2 µM
IC50 (NCI-H661): > 2 µM
IC50 (SW1573): > 2 µM
IC50 (J82): > 2 µM
IC50 (MKN-45): > 2 µM
IC50 (A2780): > 2 µM
IC50 (JEG-3): > 2 µM
IC50 (SNU-387): > 2 µM
IC50 (SiHa): > 2 µM
IC50 (HT1197): > 2 µM
IC50 (COLO-678): > 2 µM
IC50 (MEL-JUSO): > 2 µM
IC50 (MKN-1): > 2 µM
IC50 (GP5d): > 2 µM
IC50 (OVCAR-3): > 2 µM
IC50 (BXPC-3): > 2 µM
IC50 (NCI-N87): > 2 µM
IC50 (SK-MES-1): > 2 µM
IC50 (G-402): > 2 µM
IC50 (NCI-H1693): 2 µM
IC50 (DOK): 0.378 µM
IC50 (OAW-28): > 2 µM
IC50 (Capan-2): > 2 µM
IC50 (EW-22): > 2 µM
IC50 (KYSE-410): > 2 µM
IC50 (MHH-ES-1): > 2 µM
IC50 (PANC-08-13): > 2 µM
IC50 (MDA-MB-231): > 2 µM
IC50 (COLO-680N): > 2 µM
IC50 (GAMG): > 2 µM
IC50 (DoTc2-4510): > 2 µM
IC50 (NCI-H2052): > 2 µM
IC50 (M059J): > 2 µM
IC50 (EGI-1): > 2 µM
IC50 (UACC-893): > 2 µM
IC50 (MeWo): > 2 µM
IC50 (NCI-H1993): > 2 µM
IC50 (T98G): > 2 µM
IC50 (SK-OV-3): > 2 µM
IC50 (HT-1080): 0.553 µM
IC50 (CAL-72): > 2 µM
IC50 (RVH-421): > 2 µM
IC50 (SAS): > 2 µM
IC50 (NCI-H1651): > 2 µM
IC50 (KYSE-510): > 2 µM
IC50 (NCI-H2405): > 2 µM
